Reference: the NIST ThermoML archive (doi:10.1021/je400679k)

Assay: xn = mol fraction of the nth substance listed
Conditions: 101 kPa, Liquid, Vibrating tube method

CNCCCN [N-methyl-1,3-diaminopropane] + CN(C)CCO
mass density [kg/m3]
Conditions | x1 = 0.0998 | x1 = 0.2 | x1 = 0.3001 | x1 = 0.4 | x1 = 0.4997 | x1 = 0.5993 | x1 = 0.6999 | x1 = 0.799 | x1 = 0.9 | x1 = 1
283.15 K | 893.869 | 892.03 | 889.578 | 886.723 | 883.31 | 879.367 | 875.276 | 871.091 | 866.659 | 860.459
293.15 K | 885.469 | 883.599 | 881.113 | 878.225 | 874.783 | 870.8 | 866.663 | 862.415 | 857.904 | 851.605
303.15 K | 876.968 | 875.071 | 872.551 | 869.634 | 866.166 | 862.148 | 857.97 | 853.666 | 849.087 | 842.69
313.15 K | 868.337 | 866.42 | 863.872 | 860.932 | 857.442 | 853.398 | 849.183 | 844.832 | 840.193 | 833.715
323.15 K | 859.574 | 857.639 | 855.069 | 852.112 | 848.606 | 844.543 | 840.3 | 835.912 | 831.218 | 824.673
333.15 K | 850.654 | 848.712 | 846.131 | 843.164 | 839.647 | 835.571 | 831.314 | 826.896 | 822.163 | 815.559
343.15 K | 841.562 | 839.622 | 837.042 | 834.073 | 830.555 | 826.477 | 822.212 | 817.78 | 813.022 | 806.37
353.15 K | 832.286 | 830.357 | 827.791 | 824.83 | 821.322 | 817.252 | 812.995 | 808.563 | 803.789 | 797.093
363.15 K | 822.801 | 820.903 | 818.354 | 815.413 | 811.93 | 807.876 | 803.636 | 799.198 | 794.432 | 787.723

CNCCCN [N-methyl-1,3-diaminopropane] + CN(CCO)CCO
mass density [kg/m3]
Conditions | x1 = 0.1001 | x1 = 0.2003 | x1 = 0.2999 | x1 = 0.3997 | x1 = 0.5 | x1 = 0.5999 | x1 = 0.7001 | x1 = 0.8002 | x1 = 0.9 | x1 = 1
293.15 K | 1026.93 | 1012.7 | 997.588 | 981.393 | 964.134 | 944.646 | 923.928 | 900.759 | 876.717 | 851.605
303.15 K | 1019.31 | 1005.01 | 989.787 | 973.417 | 956.077 | 936.426 | 915.36 | 892.077 | 868.035 | 842.69
313.15 K | 1011.66 | 997.273 | 981.94 | 965.391 | 947.946 | 928.152 | 907.016 | 883.714 | 859.287 | 833.715
323.15 K | 1003.95 | 989.479 | 974.031 | 957.394 | 939.738 | 919.85 | 898.494 | 874.972 | 850.467 | 824.673
333.15 K | 996.181 | 981.607 | 966.033 | 949.272 | 931.432 | 911.414 | 889.941 | 866.238 | 841.566 | 815.559
343.15 K | 988.342 | 973.656 | 957.953 | 941.042 | 923.056 | 902.895 | 881.277 | 857.422 | 832.576 | 806.37
353.15 K | 980.415 | 965.631 | 949.783 | 932.732 | 914.593 | 894.29 | 872.517 | 848.523 | 823.509 | 797.093
363.15 K | 972.409 | 957.499 | 941.523 | 924.324 | 906.038 | 885.584 | 863.668 | 839.559 | 814.342 | 787.723
